Activity calls are given as the source filed them. The rule behind the calls is not given here.
Target: Nuclear receptor ROR-gamma (Homo sapiens) (UniProt P51449)
Experiment: RORG inhibitor potency, late-stage follow-up, selectivity assay for RORA inverse agonist project, cell-based, luminescence, dose response (AID 463151)
Conditions: cell-based RORG luciferase reporter

Sequence of Nuclear receptor ROR-gamma (Homo sapiens) (P51449 whole entry, looked up): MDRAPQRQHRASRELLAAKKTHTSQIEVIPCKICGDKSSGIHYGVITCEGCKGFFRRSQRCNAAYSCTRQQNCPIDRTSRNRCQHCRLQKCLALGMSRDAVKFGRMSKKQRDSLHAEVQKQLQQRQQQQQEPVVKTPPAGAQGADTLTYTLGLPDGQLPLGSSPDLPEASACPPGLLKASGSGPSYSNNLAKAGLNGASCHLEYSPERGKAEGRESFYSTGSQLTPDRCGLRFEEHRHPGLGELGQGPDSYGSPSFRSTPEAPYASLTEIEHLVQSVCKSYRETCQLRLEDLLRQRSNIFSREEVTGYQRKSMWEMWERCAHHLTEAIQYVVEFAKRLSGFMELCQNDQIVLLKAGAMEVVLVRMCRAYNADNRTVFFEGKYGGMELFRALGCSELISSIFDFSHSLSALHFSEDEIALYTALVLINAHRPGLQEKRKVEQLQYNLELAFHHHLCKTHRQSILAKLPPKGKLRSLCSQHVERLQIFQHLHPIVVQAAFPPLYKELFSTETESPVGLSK

- IC50: > 10 µM (inactive)
SMILES: O=S(=O)(Nc1ccc(C(O)(C(F)(F)F)C(F)(F)F)cc1)c1cccs1

Reference: PubChem BioAssay AID463151 (The Scripps Research Institute Molecular Screening Center, 2010)
